Calls of active or inactive are those of the source. The rule behind the calls is not given here.
Columns and labels:
[1] = molecular target: T1, Protein cereblon/E3 ubiquitin-protein ligase XIAP (Homo sapiens) (UniProt P98170+Q96SW2); assay: PROTAC activity at CRBN/XIAP in human MCF7 cells assessed as induction of XIAP degradation at 1 uM measured after 18 hrs by western blot analysis; type: cell-based
[2] = molecular target: Baculoviral IAP repeat-containing protein 2 (Homo sapiens) (UniProt Q13490); assay: Induction of cIAP1 degradation in human MCF7 cells at 0.1 uM measured after 18 hrs by western blot analysis; type: cell-based
Sequence of Baculoviral IAP repeat-containing protein 2 (Homo sapiens) (Q13490 whole entry): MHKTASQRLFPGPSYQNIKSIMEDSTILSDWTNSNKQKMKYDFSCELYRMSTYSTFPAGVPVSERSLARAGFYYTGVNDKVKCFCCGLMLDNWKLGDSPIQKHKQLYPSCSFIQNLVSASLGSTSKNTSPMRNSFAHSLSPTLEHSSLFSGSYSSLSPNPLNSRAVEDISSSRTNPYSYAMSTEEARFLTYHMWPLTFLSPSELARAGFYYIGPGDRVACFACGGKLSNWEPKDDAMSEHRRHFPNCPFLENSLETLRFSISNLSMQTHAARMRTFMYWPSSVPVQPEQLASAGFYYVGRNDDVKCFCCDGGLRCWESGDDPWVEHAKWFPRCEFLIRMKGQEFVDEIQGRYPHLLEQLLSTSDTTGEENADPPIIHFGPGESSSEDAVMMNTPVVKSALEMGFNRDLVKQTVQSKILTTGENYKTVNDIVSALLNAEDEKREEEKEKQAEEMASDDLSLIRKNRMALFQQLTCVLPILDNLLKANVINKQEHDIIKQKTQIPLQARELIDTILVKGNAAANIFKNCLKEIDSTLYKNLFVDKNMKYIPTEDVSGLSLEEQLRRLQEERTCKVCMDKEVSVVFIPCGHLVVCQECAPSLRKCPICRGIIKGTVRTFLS

[3] = molecular target: Baculoviral IAP repeat-containing protein 2 (Homo sapiens) (UniProt Q13490); assay: Induction of cIAP1 degradation in human MCF7 cells at 1 uM measured after 18 hrs by western blot analysis; type: cell-based
[4] = molecular target: Baculoviral IAP repeat-containing protein 2 (Homo sapiens) (UniProt Q13490); assay: Induction of cIAP1 degradation in human MCF7 cells at 0.1 to 10 uM measured after 18 hrs by western blot analysis; type: cell-based; conditions: dose 0.1-10 µM
[5] = molecular target: T2, Protein cereblon/Baculoviral IAP repeat-containing protein 3 (Homo sapiens) (UniProt Q13489+Q96SW2); assay: PROTAC activity at CRBN/cIAP2 in human MCF7 cells assessed as induction of cIAP2 degradation at 0.1 to 10 uM measured after 18 hrs by western blot analysis; type: cell-based; conditions: dose 0.1-10 µM
T2 sequence (Q13489 whole entry, looked up): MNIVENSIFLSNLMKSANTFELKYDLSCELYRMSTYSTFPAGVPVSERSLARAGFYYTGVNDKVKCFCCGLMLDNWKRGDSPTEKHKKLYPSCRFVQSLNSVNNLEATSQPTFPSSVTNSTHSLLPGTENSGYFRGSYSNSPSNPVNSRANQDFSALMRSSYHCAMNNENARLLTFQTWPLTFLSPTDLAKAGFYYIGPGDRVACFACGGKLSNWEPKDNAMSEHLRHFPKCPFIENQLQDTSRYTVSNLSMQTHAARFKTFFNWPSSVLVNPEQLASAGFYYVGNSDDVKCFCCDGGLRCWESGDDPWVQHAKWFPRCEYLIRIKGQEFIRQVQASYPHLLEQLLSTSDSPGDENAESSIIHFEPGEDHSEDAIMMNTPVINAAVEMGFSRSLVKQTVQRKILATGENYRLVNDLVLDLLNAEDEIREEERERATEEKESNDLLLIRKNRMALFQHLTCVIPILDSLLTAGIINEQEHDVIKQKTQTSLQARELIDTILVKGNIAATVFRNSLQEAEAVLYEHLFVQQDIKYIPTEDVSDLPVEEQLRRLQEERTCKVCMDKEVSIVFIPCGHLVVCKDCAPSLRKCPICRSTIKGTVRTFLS
T2 sequence (Q96SW2 whole entry, looked up): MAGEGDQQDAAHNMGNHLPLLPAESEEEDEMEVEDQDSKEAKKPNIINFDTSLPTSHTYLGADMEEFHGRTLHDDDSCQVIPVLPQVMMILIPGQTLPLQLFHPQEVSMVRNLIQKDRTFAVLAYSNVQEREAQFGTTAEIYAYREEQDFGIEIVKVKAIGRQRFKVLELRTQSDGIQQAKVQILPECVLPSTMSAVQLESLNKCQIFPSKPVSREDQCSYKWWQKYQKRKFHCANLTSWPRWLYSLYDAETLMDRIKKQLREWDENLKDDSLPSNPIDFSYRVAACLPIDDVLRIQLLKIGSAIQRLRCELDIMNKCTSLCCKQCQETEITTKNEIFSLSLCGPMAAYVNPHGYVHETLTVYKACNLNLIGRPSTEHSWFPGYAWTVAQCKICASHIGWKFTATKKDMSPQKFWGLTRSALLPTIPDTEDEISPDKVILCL

[6] = molecular target: Protein cereblon (Homo sapiens) (UniProt Q96SW2); assay: Induction of CRBN degradation in human MCF7 cells by western blot analysis; type: cell-based
Sequence of Protein cereblon (Homo sapiens) (Q96SW2 whole entry): as the sequence (Q96SW2 whole entry, looked up) above

[7] = molecular target: T1, Protein cereblon/E3 ubiquitin-protein ligase XIAP (Homo sapiens); assay: PROTAC activity at CRBN/XIAP in human MCF7 cells assessed as induction of XIAP degradation at 0.1 uM measured within 1 hr by western blot analysis; type: cell-based
[8] = molecular target: T2, Protein cereblon/Baculoviral IAP repeat-containing protein 3 (Homo sapiens); assay: PROTAC activity at CRBN/cIAP2 in human MCF7 cells assessed as induction of cIAP2 degradation at 0.1 uM measured within 1 hr by western blot analysis; type: cell-based
[9] = molecular target: Baculoviral IAP repeat-containing protein 2 (Homo sapiens) (UniProt Q13490); assay: Induction of cIAP1 degradation in human MCF7 cells at 1 uM measured after 6 hrs in presence of proteasome inhibitor, MG132 by western blot analysis; type: cell-based
[10] = molecular target: T2, Protein cereblon/Baculoviral IAP repeat-containing protein 3 (Homo sapiens); assay: PROTAC activity at CRBN/cIAP2 in human MCF7 cells assessed as induction of cIAP2 degradation at 1 uM measured after 6 hrs in presence of proteasome inhibitor, MG132 by western blot analysis; type: cell-based
[11] = molecular target: Baculoviral IAP repeat-containing protein 3 (Homo sapiens) (UniProt Q13489); assay: Induction of […] degradation in human MCF7 cells transfected with CRBN siRNA at 0.01 to 1 uM measured after 18 hrs by western blot analysis; type: cell-based; conditions: dose 0.01-1 µM
Sequence of Baculoviral IAP repeat-containing protein 3 (Homo sapiens) (Q13489 whole entry): as the sequence (Q13489 whole entry, looked up) above

[12] = molecular target: Protein cereblon/Baculoviral IAP repeat-containing protein 2 (Homo sapiens) (UniProt Q13490+Q96SW2); assay: Binding affinity to CRBN/cIAP1 in human HEK293T cells assessed as ternary complex formation at 1 uM measured after 6 hrs by immunoprecipitation analysis; type: cell-based
Sequence of Protein cereblon/Baculoviral IAP repeat-containing protein 2 (Homo sapiens) (Q13490 whole entry, looked up): as the sequence (Q13490 whole entry) above
Sequence of Protein cereblon/Baculoviral IAP repeat-containing protein 2 (Homo sapiens) (Q96SW2 whole entry, looked up): as the sequence (Q96SW2 whole entry, looked up) above

[13] = molecular target: T2, Protein cereblon/Baculoviral IAP repeat-containing protein 3 (Homo sapiens); assay: Binding affinity to CRBN/cIAP2 in human HEK293T cells assessed as ternary complex formation at 1 uM measured after 6 hrs by immunoprecipitation analysis; type: cell-based
[14] = molecular target: Baculoviral IAP repeat-containing protein 2 (Homo sapiens) (UniProt Q13490); assay: Induction of cIAP1 degradation in human MCF7 cells assessed as protein abundance at 1 uM measured after 4 hrs by TMT-labeling based LC-MS/MS analysis; type: cell-based
[15] = molecular target: T2, Protein cereblon/Baculoviral IAP repeat-containing protein 3 (Homo sapiens); assay: PROTAC activity at CRBN/cIAP2 in human MCF7 cells at 1 uM measured after 4 hrs by TMT-labeling based LC-MS/MS analysis; type: cell-based
MCF7 [16] = assay: Induction of apoptosis in human MCF7 cells assessed as increase in caspase 7 cleavage at 0.1 uM measured after 18 hrs by western blot analysis; type: functional, cell-based
MCF7 [17] = assay: Induction of apoptosis in human MCF7 cells assessed as increase in PARP cleavage at 0.1 uM measured after 18 hrs by western blot analysis; type: functional, cell-based
MCF7 [18] = assay: Induction of apoptosis in human MCF7 cells assessed as increase in total apoptotic cells at 1 uM measured after 48 hrs by AnnexinV-FITC/PI staining based flow cytometry; type: functional
MCF7 [19] = assay: Cytotoxicity against human MCF7 cells assessed as inhibition of cell growth measured after 72 hrs by CellTiter-Glo luminescent assay; type: functional
SK-OV-3 = assay: Cytotoxicity against human SK-OV-3 cells assessed as inhibition of cell growth measured after 72 hrs by CellTiter-Glo luminescent assay; type: functional, cell-based
MCF7 [20] = assay: Induction of apoptosis in human MCF7 cells assessed as increase in PARP cleavage at 1 uM measured after 6 hrs in presence of TNF-alpha by western blot analysis; type: functional, cell-based
[21] = molecular target: T3, Protein cereblon-IAP (Homo sapiens) (UniProt P98170+Q13489+Q13490+Q96SW2); assay: PROTAC activity at CRBN/IAP in human MCF7 cells assessed as inhibition of TNFalpha-induced NFkappaB activation by measuring decrease in IkBalpha phosphorylation at 0.1 uM pretreated for 2 hrs followed by stimulation with TNF-alpha for 3 mins by western blot analysis; type: cell-based; conditions: time 123.0 min
T3 sequence (P98170 whole entry, looked up): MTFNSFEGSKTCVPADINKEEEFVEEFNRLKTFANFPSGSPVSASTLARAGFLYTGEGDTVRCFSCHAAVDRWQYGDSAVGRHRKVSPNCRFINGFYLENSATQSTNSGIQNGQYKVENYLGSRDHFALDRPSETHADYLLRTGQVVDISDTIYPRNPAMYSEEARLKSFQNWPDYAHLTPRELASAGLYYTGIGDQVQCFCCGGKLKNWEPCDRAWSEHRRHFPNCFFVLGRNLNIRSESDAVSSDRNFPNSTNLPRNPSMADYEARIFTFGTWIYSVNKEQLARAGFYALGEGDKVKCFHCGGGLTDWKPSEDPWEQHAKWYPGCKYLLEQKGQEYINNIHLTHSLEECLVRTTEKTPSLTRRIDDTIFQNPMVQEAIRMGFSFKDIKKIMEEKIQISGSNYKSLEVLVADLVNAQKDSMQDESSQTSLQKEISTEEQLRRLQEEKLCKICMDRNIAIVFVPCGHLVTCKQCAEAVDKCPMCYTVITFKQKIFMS
T3 sequence (Q13489 whole entry, looked up): as the sequence (Q13489 whole entry, looked up) above
T3 sequence (Q13490 whole entry, looked up): as the sequence (Q13490 whole entry) above
T3 sequence (Q96SW2 whole entry, looked up): as the sequence (Q96SW2 whole entry, looked up) above

[22] = molecular target: T3, Protein cereblon-IAP (Homo sapiens); assay: PROTAC activity at CRBN/IAP in human MCF7 cells assessed as inhibition of TNFalpha-induced NFkappaB activation by measuring decrease in p65 phosphorylation at 0.1 uM pretreated for 2 hrs followed by stimulation with TNF-alpha for 3 mins by western blot analysis; type: cell-based; conditions: time 123.0 min
[23] = molecular target: T3, Protein cereblon-IAP (Homo sapiens); assay: PROTAC activity at CRBN/IAP in human MCF7 cells assessed as inhibition of TNFalpha-induced NFkappaB activation by measuring decrease in p38 phosphorylation at 0.1 uM pretreated for 2 hrs followed by stimulation with TNF-alpha for 3 mins by western blot analysis; type: cell-based; conditions: time 123.0 min
MCF7 [24] = assay: Inhibition of TNFalpha-induced cytokine secretion in human MCF7 cells assessed as decrease in TNFalpha level at 0.1 uM measured after 4 hrs by ELISA; type: functional, cell-based
MCF7 [25] = assay: Inhibition of TNFalpha-induced cytokine secretion in human MCF7 cells assessed as decrease in IL-6 level at 0.1 uM measured after 4 hrs by ELISA; type: functional, cell-based
MCF7 [26] = assay: Inhibition of TNFalpha-induced cytokine mRNA expression in human MCF7 cells assessed as decrease in TNF-alpha mRNA level by quantitative real-time PCR analysis; type: functional, cell-based
MCF7 [27] = assay: Inhibition of TNFalpha-induced cytokine mRNA expression in human MCF7 cells assessed as decrease in IL-6 mRNA level by quantitative real-time PCR analysis; type: functional, cell-based
MDA-MB-231 [28] = assay: Inhibition of TNFalpha-induced cell migration in human MDA-MB-231 cells at 0.1 uM measured after 24 hrs in presence of TNFalpha by transwell assay; type: functional, cell-based
MDA-MB-231 [29] = assay: Inhibition of TNFalpha-induced cell invasion in human MDA-MB-231 cells at 0.1 uM measured after 24 hrs in presence of TNFalpha by transwell assay; type: functional, cell-based
MDA-MB-157 [30] = assay: Inhibition of TNFalpha-induced cell migration in human MDA-MB-157 cells at 0.1 uM measured after 24 hrs in presence of TNFalpha by transwell assay; type: functional, cell-based
MDA-MB-157 [31] = assay: Inhibition of TNFalpha-induced cell invasion in human MDA-MB-157 cells at 0.1 uM measured after 24 hrs in presence of TNFalpha by transwell assay; type: functional, cell-based
MCF7 [32] = assay: Inhibition of TNFalpha-induced E-cadherin protein expression in human MCF7 cells by western blot analysis; type: functional, cell-based
MCF7 [33] = assay: Inhibition of TNFalpha-induced vimentin protein expression in human MCF7 cells by western blot analysis; type: functional, cell-based

T1 sequence (P98170 whole entry, looked up): as the sequence (P98170 whole entry, looked up) above
T1 sequence (Q96SW2 whole entry, looked up): as the sequence (Q96SW2 whole entry, looked up) above

Activity [1]: 99%
Activity [2]: 87%
Activity [3]: 90%
Activity [4]: Active
Activity [5]: Active
Activity [6]: inactive
Activity [7]: > 90%
Activity [8]: > 90%
Activity [9]: inactive
Activity [10]: inactive
Activity [11]: inactive
Activity [12]: inactive
Activity [13]: Active
fold change (FC) [14]: > 2
Activity [15]: Active
Activity [21]: Active
Activity [22]: Active
Activity [23]: Active
SMILES: CN[C@@H](C)C(=O)N[C@H](C(=O)N1Cc2cc(OCCCCCCCCNC(=O)C3CN(c4ccc5c(c4)C(=O)N(C4CCC(=O)NC4=O)C5=O)C3)ccc2C[C@H]1C(=O)N[C@@H]1CCCc2ccccc21)C(C)(C)C (some centres undefined)
Activity (MCF7 [16]): Active
Activity (MCF7 [17]): Active
Activity (MCF7 [18]): 46%
GI50 (MCF7 [19]): 396 nM
Activity (SK-OV-3): Active
Activity (MCF7 [20]): Active
inhibition (MCF7 [24]): Active
inhibition (MCF7 [25]): Active
inhibition (MCF7 [26]): Active
inhibition (MCF7 [27]): Active
inhibition (MDA-MB-231 [28]): Active
inhibition (MDA-MB-231 [29]): Active
inhibition (MDA-MB-157 [30]): Active
inhibition (MDA-MB-157 [31]): Active
inhibition (MCF7 [32]): Active
inhibition (MCF7 [33]): Active

— ChEMBL document CHEMBL5344409, “Discovery of pan-IAP degraders via a CRBN recruiting mechanism” (2023)
